Experimental data published in US20250332112A1, “IONIZABLE CATIONIC LIPIDS FOR LIPID NANOPARTICLES” (GENEVANT SCIENCES GMBH, priority 2022, published 2025).

Legend:
[1] = Particle characteristics of LNPs containing luciferase mRNA and novel ionizable lipids; format: physicochemical; settings: luciferase mRNA LNP 1.6:54.6:32.8:10.9
Description: The lipid solution contains 4 components: a PEG-conjugated lipid, an ionizable lipid, cholesterol, and a phospholipid (e.g., DSPC). Lipid stocks were prepared using the lipid identities and molar ratios as described, to achieve a total concentration of ˜7 mg/mL in 100% ethanol. Firefly luciferase mRNA (TriLink Biotechnologies, L-7202) or ornithine transcarbamylase (OTC) mRNA (TriLink Biotechnologies, custom designed) was diluted in acetate, pH 5 buffer and nuclease free water to achieve a target concentration of 0.366 mg/mL mRNA in 100 mM acetate, pH 5. Equal volumes of the lipid and nucleic acid solutions were blended at a flow rate of 400 mL/min through a T-connector, and diluted with ˜4 volumes of PBS, pH 7.4. Formulations were placed in Slide-A-Lyzer dialysis units (MWCO 10,000) and dialyzed overnight against 10 mM Tris, 500 mM NaCl, pH 8 buffer. Following dialysis, the formulations were concentrated to ˜0.6 mg/mL using VivaSpin concentrator units (MWCO 100,000) and dialyzed overnight against 5 mM Tris, 10% sucrose, pH 8 buffer. Formulations were filtered through a 0.2 μm syringe filter (PES membrane). Nucleic acid concentration was determined by the RiboGreen assay. Particle size and polydispersity were determined using a Malvern Nano Series Zetasizer.
LNP formulations containing novel ionizable lipids all produced stable particles with high encapsulation efficiency (Tables 1-7).

[2] = tested on: luciferase activity in the liver; assay: Luciferase activity in liver after intravenous luciferase mRNA LNP; format: in vivo; settings: 0.5 mg/kg IV, 6 h post-IV administration, BALB/c mice (n = 4)
Description: Frozen aliquots of liver were thawed and homogenized in 1 mL of 1×CCLR (Cell Culture Lysis Reagent) using a FastPrep® homogenizer. The homogenate was then centrifuged at 16,000 RPM for 10 minutes at 4° C. Twenty (20) μL of the supernatant was loaded into a 96-well white plate and luminescence measured following addition of luciferase reagent (Promega Luciferase Assay System). Luciferase activity was determined by comparing luminescence of the homogenized samples to luciferase protein standards. To account for any quenching of luminescence by components in the liver homogenate, luciferase was added to the liver homogenates of untreated animals and the resulting luminescence measured. The resulting quench factor was applied to all samples to obtain the corrected luciferase activity, and normalized per unit mass of tissue analyzed.

[3] = Parent ionizable lipid remaining in liver at 6 h after luciferase mRNA LNP (LC-MS); format: in vivo; settings: 6 h after IV 0.5 mg/kg Luciferase mRNA LNP
Description: Liver tissues were treated with PBS and homogenized with a FastPrep machine, 3 cycles of 5 m/s×15 s. Homogenates from the PBS-treated control animals was pooled and used for standard curve preparation. Samples were extracted into a deep well plate with 250 μL of an internal suitability standard. Plates were centrifuged for 15 min at 4° C. and 2000 rpm. Analysis was performed using an Agilent 6520 QTOF coupled to an Agilent 1290 UHPLC, using reverse-phase LC separation. Quantitation of the ionizable lipid was by MS/MS against a calibration curve spiked into appropriately matched blank matrix. Calibration used a similar class of synthetic lipid as internal standard.
At 6 h post-dose, some treatment groups reported lower levels of novel ionizable lipid in mouse liver compared to the benchmark (Tables 16-18).

[4] = Table 18, female BALB/c mice (n = 4)
[5] = Table 16, female BALB/c mice (n = 4)

| Structure (SMILES) | Final Product % EE ([1]; Table 7) [%] | Final Product PDI ([1]; Table 7) | Final Product Z-avg ([1]; Table 7) [nm] | Luc Activity ([2]; Table 14) [pg/g liver] | Parent ionizable lipid remaining in liver, Average [3, 4] [nmol/g liver] | Final Product % EE ([1]; Table 3) [%] | Final Product PDI ([1]; Table 3) | Final Product Z-avg ([1]; Table 3) [nm] | Luc Activity ([2]; Table 10) [pg/g liver] | Parent ionizable lipid remaining in liver, Average [3, 5] [nmol/g liver] | other results |
| --- | --- | --- | --- | --- | --- | --- | --- | --- | --- | --- | --- |
| CCCCCCCCCCN(C(=O)CCCN(C)C)C(CCCCCCCCC)CCCCCCC(F)(F)C(=O)OCCC(CCCCCCC)CCCCCCC (centres unmarked) [Compound 18, 3-Heptyldecyl 9-(N-decyl-4-(dimethylamino)butanamido)-2,2-difluorooctadecanoate] | – | – | – | – | – | – | – | – | – | – | Final Product % EE ([1]; Table 6): 98%; Final Product PDI ([1]; Table 6): 0.07; Final Product Z-avg ([1]; Table 6): 73 nm; Luc Activity ([2]; Table 13): 4.32E+07 pg/g liver; Parent ionizable lipid remaining in liver, Average ([3]; Table 17, female mice (n = 4)): 17.02 nmol/g liver |
| CCCCCCCCCCN(C(=O)CCCN(C)C)C(CCCCCCCCC)CCCCCCC(F)(F)C(=O)OC(CCCCC)CCCCC (centres unmarked) [Compound 19, Undecan-6-yl 9-(N-decyl-4-(dimethylamino)butanamido)-2,2-difluorooctadecanoate] | – | – | – | – | – | – | – | – | – | – | Final Product % EE ([1]; Table 6): 99%; Final Product PDI ([1]; Table 6): 0.09; Final Product Z-avg ([1]; Table 6): 71 nm; Luc Activity ([2]; Table 13): 1.25E+06 pg/g liver; Parent ionizable lipid remaining in liver, Average ([3]; Table 17, female mice (n = 4)): 20.22 nmol/g liver |
| CCCCCCCCCCN(C(=O)CCCN(C)C)C(CCCCCCCCC)CCCCCCC(F)(F)C(=O)OCCC(CCCCC)CCCCC (centres unmarked) [Compound 20, 3-Pentyloctyl 9-(N-decyl-4-(dimethylamino)butanamido)-2,2-difluorooctadecanoate] | 98 | 0.08 | 72 | 2.71E+07 | 1.82 | – | – | – | – | – | – |
| CCCCCCCCCCCCCOC(=O)CCCCC(CCCCCCCCCC)N(CCN(C)C)C(=O)CCCCC(=O)OCC(CCCC)CCCCCC (centres unmarked) [Compound 23, tridecyl 6-{6-[(2-butyloctyl)oxy]-N-[2-(dimethylamino)ethyl]-6-oxohexanamido}hexadecanoate] | – | – | – | – | – | 97 | 0.06 | 69 | 4.44E+06 | 31.85 | – |
| CCCCCCCCCCCCCOC(=O)CCCCC(CCCCCCCCCC)N(CCN(C)C)C(=O)CCCCCCC(=O)OCC(CCCC)CCCCCC (centres unmarked) [Compound 24, Tridecyl 6-(8-((2-butyloctyl)oxy)-N-(2-(dimethylamino)ethyl)-8-oxooctanamido)-hexadecanoate] | – | – | – | – | – | 96 | 0.08 | 72 | 3.98E+06 | 35.16 | – |
| CCCCCCCCCCN(C(=O)CCCN(C)C)C(CCCCCCCCC)CC(=O)OCC(CCCCCC)CCCCCCCC (centres unmarked) [Compound 32, 2-hexyldecyl 3-[N-decyl-4-(dimethylamino)-butanamido]dodecanoate] | – | – | – | – | – | 99 | 0.02 | 85 | 3.07E+07 | 21.66 | – |
| CCCCCCCCCC(CCCCCCC(F)C(=O)OCCC(CCCCC)CCCCC)N(CCCCCC(F)C(=O)OCCC(CCCCC)CCCCC)C(=O)CCCN(C)C (centres unmarked) [Compound 34, 3-pentyloctyl 9-[4-(dimethylamino)-N-{6-fluoro-7-oxo-7-[(3-pentyloctyl)oxy]heptyl}butanamido]-2-fluorooctadecanoate] | 99 | 0.10 | 70 | 1.91E+06 | 1.78 | – | – | – | – | – | – |
| CCCCCCCCCCON(C(=O)CCCN(C)C)C(CCCCCCCCC)CCCCCCC(F)C(=O)OCCC(CCCCC)CCCCC (centres unmarked) [Compound 38, 3-pentyloctyl 9-[N-(decyloxy)-4-(dimethylamino)butanamido]-2-fluorooctadecanoate] | 98 | 0.17 | 65 | 2.13E+07 | 3.14 | – | – | – | – | – | – |
| CCCCCCCCCCON(C(=O)CCCN(C)C)C(CCCCCCCCCC)CCCCCCC(F)(F)C(=O)OCCC(CCCCC)CCCCC (centres unmarked) [Compound 39, 3-pentyloctyl 9-[N-(decyloxy)-4-(dimethylamino)butanamido]-2,2-difluorononadecanoate] | 98 | 0.19 | 59 | 4.30E+06 | 2.91 | – | – | – | – | – | – |
| CCCCCCCCCCON(C(=O)CCCCN(C)C)C(CCCCCCCCCC)CCCCCC(=O)OCC(CCCCCC)CCCCCCCC (centres unmarked) [Compound 47, 2-Hexyldecyl 7-(N-(decyloxy)-5-(dimethylamino)pentanamido)heptadecanoate] | 98 | 0.07 | 77 | 8.09E+07 | 54.78 | – | – | – | – | – | – |
| CCCCC/C=C\CCCN(CCC/C=C\CCCCC)NC(=O)CC(CCCCCCCCC)N(CCCN(C)C)C(=O)CCCCCCCCC (centres unmarked) [Compound 54, N-(1-(2,2-di((Z)-Dec-4-en-1-yl)hydrazineyl)-1-oxododecan-3-yl)-N-(3-(dimethylamino)-propyl)decanamide] | – | – | – | – | – | 97 | 0.05 | 82 | 3.28E+06 | 17.78 | – |
| CCCCC/C=C\CCCC(CCC/C=C\CCCCC)=NNC(=O)CC(CCCCCCCCC)N(CCCN(C)C)C(=O)C(CCCCCC)CCCCCCCC (centres unmarked) [Compound 57, N-(3-(dimethylamino)propyl)-N-(1-(2-((6Z,15Z)-henicosa-6,15-dien-11-ylidene)hydrazineyl)-1-oxododecan-3-yl)-2-hexyldecanamide] | – | – | – | – | – | 80 | 0.03 | 84 | 2.43E+06 | 15.88 | – |
| CCCCC/C=C\CCCC(CCC/C=C\CCCCC)NNC(=O)CC(CCCCCCCCC)N(CCCN(C)C)C(=O)CCCCCCCCC (centres unmarked) [Compound 59, N-(3-(Dimethylamino)propyl)-N-(1-(2-((6Z,15Z)-henicosa-6,15-dien-11-yl)hydrazineyl)-1-oxododecan-3-yl)decanamide] | – | – | – | – | – | 99 | 0.07 | 82 | 1.12E+06 | 22.67 | – |
| CCCCCCCCCCC(CCCCC(=O)OCc1cc(CCCCCC)cc(CCCCCC)c1)N(CCCN(C)C)C(=O)CCCCCCCCC (centres unmarked) [Compound 60, (3,5-dihexylphenyl)methyl 6-{N-[3-(dimethylamino)propyl]decanamido}hexadecanoate] | – | – | – | – | – | 99 | 0.05 | 73 | 8.23E+06 | 35.39 | – |
| CCCCCCCCCCCCC(=O)N(CCCN(C)C)C(CCCCCCCCCC)CCCCC(=O)OCc1cc(CCCCCC)cc(CCCCCC)c1 (centres unmarked) [Compound 61, 3,5-Dihexylbenzyl 6-(N-(3-(dimethylamino)propyl)tridecanamido)hexadecanoate] | – | – | – | – | – | 99 | 0.05 | 76 | 2.45E+07 | 27.21 | – |
| CCCCCCCCCCC(CCCCC(=O)OCc1cc(CCCCCC)cc(CCCCCC)c1)N(CCCN(C)C)C(=O)C(CCCCCC)CCCCCCCC (centres unmarked) [Compound 62, 3,5-Dihexylbenzyl 6-(N-(3-(dimethylamino)propyl)-2-hexyldecanamido)hexadecanoate] | – | – | – | – | – | 98 | 0.08 | 67 | 7.84E+06 | 20.17 | – |
